Tests used:
[1] = system: female Aedes aegypti adults; assay: High-throughput in vitro screening assay, knockdown and mortality; settings: for KD50 (30 min), half-knockdown dose / KD50 (60 min), half-knockdown dose: dose per assay tube volume, 95% CI; for time at which knockdown began: FIG. 6A, 6B, 6D; for knockdown and mortality activities (in words): in vivo
[2] = system: female Aedes aegypti adults; assay: High-throughput in vitro screening assay, spatial repellency; type: in vivo; settings: for 30-minute RD50 compared with that of DEET: 30 minutes, α = 0.05; for RD50 (30 min), half-repellent dose / RD50 (60 min), half-repellent dose: dose per filter paper surface area, 95% CI; for spatial repellency (in words): highest-tested dose of 100 μg/cm^2
Excerpt: A high-throughput screening method for evaluating spatial repellency and vapor toxicity, described by Jiang S., et al. (2019, “High-Throughput Screening Method for Evaluating Spatial Repellency and Vapour Toxicity to Mosquitoes,” Med. Vet. Entomol. 33: 388-396), was used for this study. As shown in FIG. 2 of Jiang S., et al., assay tubes were constructed by covering 12.5 cm glass tubes on one side with netting secured by a rubber band. The tubes were used in horizontal orientation. Adult mosquitos 2-7 days old were anesthetized on ice for approximately 5 minutes and 16 females were transferred to each tube. The other end of the tube was then closed with netting and a rubber band.
The conical ends of 50 mL centrifuge tubes (Eppendorf, Enfield, Connecticut, USA) were cut at approximately the 10 mL mark to create the end caps for the assay tubes. […] For repellency tests, filter papers for the “untreated” side of the assay tube received pure acetone, whereas filter papers for the “treated” side received acetone solution containing a dissolved compound of interest. For knockdown tests, both filter papers were treated with acetone solution containing one or more compounds of interest. Acetone on both filter papers served as negative controls.
For repellency assays, filter papers were given 10 minutes of evaporation time before being placed into the end caps with forceps (Jiang S., et al. 2019, Supra). For knockdown assays, filter papers were given 5 minutes of evaporation time before being placed into the end caps. […] Assay tubes were capped such that the cap securely overlapped the glass but approximately 5 mm of space was left between the netting and the filter paper so that the mosquitos could not contact the filter paper.
Assay tubes were placed on a white polystyrene platform with wooden sticks glued flatly across it to prevent the tubes from rolling. A straight black line was drawn down the center of the platform and assay tubes were centered on the line at the beginning of the tests. In repellency assays, data were collected at 15, 30, and 60 minutes after the end caps were placed on the assay tubes. Assay tubes were not disturbed for the entire 60 minutes. At each time point, the number of mosquitos that remained on the treated side was visually assessed and recorded. The treated side was alternated with each set of tests. For repellency tests, DEET at a dose of 100 μg/cm^2 served as the positive control.
For the high-throughput in vitro screening assays, analyses were conducted with R version 4.2.2 statistical software (R Core Team, 2022, “R: a language and environment for statistical computing. R foundation for statistical computing,” Vienna, Austria). Concentrations were calculated in terms of filter paper surface area (μg/cm^2) for repellency assays and in terms of assay tube volume (μg/cm^3) for knockdown assays.
Half-repellent (RD50), half-knockdown (KD50), and half-lethal (LD50) doses were calculated from dose-response curves (DRCs) obtained by four-parameter log-logistic equation models generated using the drc package (Dose Response Curve Analyses Software; Ritz C. et al., 2015, “Dose-response analysis using R,” PLOS ONE 10: e0146021). For repellency test analysis, the upper and lower asymptotes for the proportion of mosquitos remaining on the treated side were fixed at 0.5 and 0, respectively. For KD and mortality test analysis, the upper and lower asymptotes for the proportion of mosquitos knocked down or killed were fixed at 1.0 and 0, respectively. To determine whether RD50, KD50, or LD50 values differed across compounds at each timepoint, a joint model assuming different values for each compound and a null model that assumed a single value for all compounds were compared with a likelihood ratio test.

[3] = system: female Aedes aegypti adults; assay: Arm-in-cage cloth-patch in vivo assay (topical repellency); settings: for Minimum Effective Dose (MED): Mean ± SEM, lowest dosage with five or fewer bites through repellent-treated cloth in 1-minute exposure, at least three volunteers; for topical repellency (in words): initial screening dose of 0.187 mg/cm^2; for MED, times lower than the initial screening dose: relative to initial screening dose of 0.187 mg/cm^2
Excerpt: Arm-in-Cage Test Cloth-Patch in vivo Assay Pyrethroid-susceptible yellow fever mosquitoes Ae. aegypti (Orlando strain) were reared in the United States Department of Agriculture Mosquito and Fly Research Unit in Gainesville, FL under standard protocols. Three to seven-day-old, starved female mosquitoes were collected using a “draw box” (Posey, K. and Schreck, C. E, 1981, “An airflow apparatus for selecting female mosquitoes for use in repellent and attraction studies” Mosquito News 41: 566-568; US. Department of Agriculture, 1977, Repellent activity of compounds submitted by Walter Reed Army Institute of Research. Part 1. Protection time and minimum effective dosage against Aedes aegypti mosquitoes. Tech. Bull. No. 1549) and were placed in cages at an approximate density 200 mosquitoes/cage. Repellency was determined according to a standard protocol (Bernier, U. R., et al, 2022. “Evaluation and application of repellent-treated uniform/clothing and textiles against vector mosquitoes,” In Advances in Arthropod Repellents (pp. 69-94). Academic Press) and reported as the minimum effective dosage (MED). […] A nylon leg stocking was placed over the arm to prevent direct contact of the repellent-treated cloth patch with the skin. […]. Cloth was treated by placing a rolled bandage (50 cm^2) into each vial containing 1 mL of solution and allowing the patch to absorb the solution completely. The cloth was taped over a 4 by 9-cm opening cut into a vinyl plastic sheet that was draped around the volunteers' arms and taped in place. The cloth was air-dried approximately 15 min before conducting each test. The work reported here is an average of the MED for at least three volunteers. Each volunteer covered his or her arm with a nylon stocking to avoid contact between the skin and the treated cloth and wore a rubber glove to prevent mosquito bites on the hand.
. The minimum effective dose (MED) was determined for each repellent and subject, defined as the lowest concentration that prevents biting). MEDs from each subject were pooled and reported as the average among all replicates/subjects with SEM. A minimum of 3 replicates were performed on at least three human subjects. Written informed consent was obtained for all human subjects used in this study in accordance with IRB protocol #20193320, as approved by the WCG™ IRB.
Statistical Analyses: Student's T-test was used to compare the means between tested compound and DEET and Icaridin in the arm-in-cage in vivo assay and neurophysiological study.

Compound	KD50 (30 min), half-knockdown dose [1] [µg/mL]	KD50 (60 min), half-knockdown dose [1] [µg/mL]	30-minute RD50 compared with that of DEET [2]	Minimum Effective Dose (MED) [3] [mg/cm^2]	RD50 (30 min), half-repellent dose [2] [μg/cm^2]	RD50 (60 min), half-repellent dose [2] [μg/cm^2]	spatial repellency (in words) [2]	topical repellency (in words) [3]	time at which knockdown began [1] [min]	knockdown and mortality activities (in words) [1]	MED, times lower than the initial screening dose [3] [times]
COC(=O)c1ccccc1[N+](=O)[O-] [M2NB, methyl 2-nitrobenzoate]	>7	>7	not significantly different from that of DEET	0.025	–	–	–	–	–	–	–
COC(=O)c1ccc(OC)cc1 [M4MOB, methyl 4-methoxybenzoate]	–	–	–	>0.187	>100	>100	did not show spatial repellencies	did not show any topical repellencies	–	–	–
COC(=O)c1ccc(C(F)(F)F)cc1 [M4tFMB, methyl 4-(trifluoromethyl)benzoate]	–	–	–	>0.187	>100	>100	did not show spatial repellencies	did not show any topical repellencies	–	–	–
COC(=O)c1ccccc1N [MA, methyl anthranilate]	–	–	significantly lower than that of DEET	0.027	11.84	–	–	–	–	–	–
COC(=O)c1ccccc1NC(C)=O [MAcA, methyl N-acetylanthranilate]	–	–	–	0.101	>100	>100	did not show spatial repellencies	demonstrated repellency at doses lower than 0.187 mg/cm^2 on at least one test subject	–	–	–
COC(=O)c1ccccc1 [MB, Methyl benzoate]	–	–	–	>0.187	>100	>100	did not show spatial repellencies	did not show any topical repellencies	–	–	–
O=C(Oc1ccccc1)c1ccccc1 [PhB, phenyl benzoate]	–	–	–	>0.187	>100	>100	did not show spatial repellencies	did not show any topical repellencies	–	–	–
O=C(OCCc1ccccc1)c1ccccc1 [PhEB, phenethyl benzoate]	–	–	–	>0.187	>100	>100	did not show spatial repellencies	did not show any topical repellencies	–	–	–
C=COC(=O)c1ccccc1 [VB, vinyl benzoate]	–	–	–	>0.187	>100	>100	did not show spatial repellencies	did not show any topical repellencies	–	–	–
CC(C)COC(=O)c1ccccc1 [iBB, iso-butyl benzoate]	5.26	5.29	not significantly different from that of DEET	>0.187	–	–	–	did not show any topical repellencies	5	exhibited considerable knockdown and mortality activities	–
CC(C)CCOC(=O)c1ccccc1 [iPeB, iso-pentyl benzoate]	3.71	3.40	not significantly different from that of DEET	>0.187	–	–	–	did not show any topical repellencies	5	exhibited considerable knockdown and mortality activities	–
CC(C)OC(=O)c1ccccc1 [iPrB, iso-propyl benzoate]	–	–	–	>0.187	>100	>100	did not show spatial repellencies	did not show any topical repellencies	–	–	–
CCCCOC(=O)c1ccc(O)cc1 [nB4HB, n-butyl 4-hydroxybenzoate]	–	–	–	>0.187	>100	>100	did not show spatial repellencies	did not show any topical repellencies	–	–	–
CCCCOC(=O)c1ccccc1NC=O [nBFA, n-Butyl N-formylanthranilate]	–	–	–	0.0075	>100	>100	did not show any spatial repellencies	–	–	–	25
CCCOC(=O)c1ccc(O)cc1 [nPr4HB, n-propyl 4-hydroxylbenzoate]	–	–	–	>0.187	>100	>100	did not show spatial repellencies	did not show any topical repellencies	–	–	–
CCCOC(=O)c1ccccc1 [nPrB, n-propyl benzoate]	–	–	–	0.250	>100	>100	did not show spatial repellencies	demonstrated repellency at doses lower than 0.187 mg/cm^2 on at least one test subject	–	–	–
CCCOC(=O)c1ccccc1NC=O [nPrFA, n-Propyl N-formylanthranilate]	–	–	–	0.0028	>100	>100	did not show any spatial repellencies	–	–	–	64

Reference: patent US20240292836A1, “AGENTS FOR REPELLING, KNOCKING DOWN, AND/OR KILLING BLOOD-SUCKING ARTHROPODS AND USES THEREOF” (The United States of America, as represented by the …, priority 2023, published 2024)
